Experimental data: patent US7456225B1, “Liver protection compounds of the cyclohexenone type from Antrodia camphorata” (Golden Biotechnology Corporation, priority 2007, dated 2008)
Marks after values point to notes of the source that are not given here.

Tests used:
Type in all cases: in vivo, Sprague-Dawley (SD) rats
[1] = test system: CCl4-induced liver injury in rats; test: Pathological changes of the liver surface observed with naked eyes; conditions: CCl4-treated rats, 8 weeks
Description: The animal model was performed with five-week-old Sprague-Dawley (SD) rats purchased from BioLasco Taiwan Co., Ltd. Healthy rats weighing 220-270 g were chosen for experiment after observing for 2 weeks in the laboratory animal room. The rats were randomly divided into 6 groups (12 rats/group): normal (gp. A); control groups including model control (gp. B) and positive control (gp. C, animals receiving silymarin); treatment groups including animals receiving 300 mg/kg of cyclohexenone (gp. D), 1000 mg/kg of cyclohexenone (gp. E), and 3000 mg/kg of cyclohexenone (gp. F), as indicated in Table 1. Only normal group was not poisoned with CCl4. The body weights were recorded to calculate the dosage. […] It helps to remove toxins from liver cells by either neutralizing the toxicity of toxic compounds or competing with the binding sites in liver. It is a potent antioxidant, protects the liver from free radicals. It has been widely studied for treating various types of liver injury in animals and clinical trials. […]
The pathological changes of the liver surface were examined with naked eyes when the liver was taken out from rats, and then tissue sections were made. […] The pathological changes of liver injury were evaluated under light microscope (Opticphot-2, Nikon, Tokyo, Japan) after stained with the abovementioned solution. […]

[2] = test system: CCl4 induced liver injury in rats; test: Histological evaluation of liver injury (H&E, Jonker et al. 0-4 scale); conditions: for Liver injury score: 0-4 scale, CCl4-treated rats, 8 weeks; for Liver injury +, counts of pathological rats: level 1 = +, slight; for Liver injury ++, counts of pathological rats: level 2 = ++, mild; for Liver injury +++, counts of pathological rats: level 3 = +++, moderate; for Liver injury ++++, counts of pathological rats: level 4 = ++++, remarkable
Description: (§1) The animal model was performed with five-week-old Sprague-Dawley (SD) rats purchased from BioLasco Taiwan Co., Ltd. Healthy rats weighing 220-270 g were chosen for experiment after observing for 2 weeks in the laboratory animal room. The rats were randomly divided into 6 groups (12 rats/group): normal (gp. A); control groups including model control (gp. B) and positive control (gp. C, animals receiving silymarin); treatment groups including animals receiving 300 mg/kg of cyclohexenone (gp. D), 1000 mg/kg of cyclohexenone (gp. E), and 3000 mg/kg of cyclohexenone (gp. F), as indicated in Table 1. Only normal group was not poisoned with CCl4. The body weights were recorded to calculate the dosage. […] It helps to remove toxins from liver cells by either neutralizing the toxicity of toxic compounds or competing with the binding sites in liver. It is a potent antioxidant, protects the liver from free radicals. It has been widely studied for treating various types of liver injury in animals and clinical trials. The beneficial effects on liver protection have made silymarin a good medicine for liver diseases and a drug in positive control group for the animal model of liver injury.
(§2) Rats in normal group (group A) were fed with corn oil (Sigma chemical co.) by means of stomach tubes. Carbon tetrachloride (Shimakyu, Osaka, Japan) was administered to groups B to F via stomach tubes twice weekly (every Tuesday and Thursday afternoon) for 8 weeks, at a dose of 2 ml/kg of body weight, diluted with corn oil. Silymarin was prepared with saline in an amount of 200 mg/kg of body weight and was fed to rats of group C via a stomach tube. Cyclohexenone prepared from example 1 was mixed with saline, and fed in the amounts of 300 mg/kg, 1000 mg/kg and 3000 mg/kg of body weight to rats of group D to F via stomach tubes. The total feeding volume was estimated in the ratio of 10 ml/kg of body weight to groups C to F five days a week (every morning) for 8 weeks. The body weights of rats and the amounts of food intake in rats for each group were shown in FIG. 1 and FIG. 2, respectively.
The pathological changes of the liver surface were examined with naked eyes when the liver was taken out from rats, and then tissue sections were made. Half of each liver lobe was stored at −80° C. for antioxidant enzyme assay to follow up. The rest of liver tissues were fixed in 10% formalin for one week, embedded in paraffin cut into 2 μm sections, and stained with Hematoxyline-eosin (H&E) to visualize the lipid deposition, inflammation, cell necrosis and fibrosis, or stained with Masson's trichromic solution to visualize extracellular matrix and collagen fibers for liver fibrosis development. The pathological changes of liver injury were evaluated under light microscope (Opticphot-2, Nikon, Tokyo, Japan) after stained with the abovementioned solution.
Assessment of pathologic score in the chronic liver damage, the extent of inflammation, vacuolar degeneration, liver cell necrosis and bile duct proliferation were graded semi-quantitatively on a “0” to “4” scale (level 0=−, none, level 1=+, slight, level 2=++, mild, level 3=+++, moderate, and level 4=++++, remarkable, according to Jonker et al. (Jonker, A. M., Dijkhuis, F. W., Boes, A., Hardonk, M. J. and Grond J. 1992. Immunohistochemical study of extracellular matrix in acute galactosamine hepatitis in rats. Hepatology. 15(3):423-31).

[3] = test system: CCl4 treated, liver injury model animals; test: Antioxidant enzymes in liver (GSH, GSHPx, catalase, SOD); conditions: CCl4-treated rats, 8 weeks
Description: as §1, §2
The liver stored at −80° C. as described above was immersed in PBS buffer (phosphate buffered saline solution, pH 7.4) containing 0.16 mg/ml heparin. Red blood cells were removed from the tissue. Liver was prepared as 1.0 g tissue/10 mL buffer homogenates in fresh, chilled 50 mM phosphate, 1 mM EDTA (pH 6-7) buffer using a Polytron homogenizer (setting 5, PT 10 probe, Brinkmann Instruments, Westbury, N.Y.) for one min. The solution was centrifuged at 10,000×g for 15 min at 4° C. Protein concentration was determined with a BCA protein assay kit (Pierce, Ill., USA) at 550 nm using an enzyme linked immunosorbent assay (ELISA) reader (MAX ELISA Reader, Quant, Bio-Tek Instrument, Vermont, USA). Commercial kits of glutathione (GSH), glutathione peroxidase (GSHPx), catalase (CAT), superoxide dismutase (SOD) (Glutathione Assay Kit, Cat No. 703002; Glutathione Peroxidase Assay Kit, Cat No. 703102; Catalase Assay Kit, Cat No. 707002; Superoxide Dismutase Assay Kit, Cat No. 706002) were purchased from Cayman Chemical Company (MI.USA) and assayed by reading at 405 nm, 340 nm, 540 nm and 450 nm using an ELISA reader. Deprotein step was carried out for all the assays mention above except SOD assay. Proteins were precipitated by mixing with equal volume of 10% metaphosphoric acid (w/v), vortex-mixed evenly, centrifuged at 2,000×g for 2 min. The supernatant was removed for enzyme assay. All values are expressed as mean ±SD, which were evaluated using One-way Analysis of Variance. Those with significant differences were further tested with the Least Significant Difference Test (LSD) or Student t-test to compare cyclohexenone treatment groups and normal groups, positive control and model groups. P<0.05 was selected as criterion for statistical significance in all cases.

COC1=C(OC)C(O)C(C/C=C(\C)CC/C=C(\C)CCC=C(C)C)C(C)C1=O (stereo not shown) [Cyclohexenone from Antrodia camphorata, 4-hydroxy-2,3-dimethoxy-6-methyl-5(3,7,11-trimethyl-dodeca-2,6,10-trienyl)-cyclohex-2-enone]
swelling and pathological conditions of liver surface (naked eyes) ([1]; cyclohexenone 3000 mg/kg): slightest condition in swelling and pathological conditions | extents of liver pathological changes (liver surface, naked eyes) ([1]; various amounts of cyclohexenone (300, 1000, 3000 mg/kg), vs model group): significantly weaker than that of model group | Liver injury score ([2]; cyclohexenone 300 mg/kg): 1.8*^a | Liver injury score ([2]; cyclohexenone 300 mg/kg, listed as cyclohexenone from Antrodia camphorata): 1.8 | Liver injury score ([2]; cyclohexenone 1000 mg/kg): 2.0*^a | Liver injury score ([2]; cyclohexenone 1000 mg/kg, listed as cyclohexenone from Antrodia camphorata): 2.0 | Liver injury score ([2]; cyclohexenone 3000 mg/kg): 2.3*^a | effects in liver injury and liver fibrosis compared with silymarin ([2]; CCl4 treated rats fed with different amount of cyclohexenone (300, 1000, 3000 mg/kg)): better effects than silymarin | Liver injury +, counts of pathological rats ([2]; cyclohexenone 300 mg/kg): 5 | Liver injury +, counts of pathological rats ([2]; cyclohexenone 1000 mg/kg): 3 | Liver injury +, counts of pathological rats ([2]; cyclohexenone 3000 mg/kg): 2 | Liver injury ++, counts of pathological rats ([2]; cyclohexenone 300 mg/kg): 6 | Liver injury ++, counts of pathological rats ([2]; cyclohexenone 1000 mg/kg): 6 | Liver injury ++, counts of pathological rats ([2]; cyclohexenone 3000 mg/kg): 6 | Liver injury +++, counts of pathological rats ([2]; cyclohexenone 1000 mg/kg): 1 | Liver injury +++, counts of pathological rats ([2]; cyclohexenone 3000 mg/kg): 1 | Liver injury ++++, counts of pathological rats ([2]; cyclohexenone 300 mg/kg): 1 | Liver injury ++++, counts of pathological rats ([2]; cyclohexenone 1000 mg/kg): 1 | Liver injury ++++, counts of pathological rats ([2]; cyclohexenone 3000 mg/kg): 2 | Catalase ([3]; cyclohexenone 300 mg/kg): 9.1 ± 1.0 U/mg protein | GSH (Glutathione activity) ([3]; cyclohexenone 300 mg/kg): 30.3 ± 3.2 uM/mg protein | GSHPx (glutathione peroxidase activity) ([3]; cyclohexenone 300 mg/kg): 9.6 ± 1.7 nmol/min/mL | SOD ([3]; cyclohexenone 300 mg/kg): 0.47 U/mg protein | Catalase ([3]; cyclohexenone 1000 mg/kg): 10.1 ± 1.4 U/mg protein | GSH (Glutathione activity) ([3]; cyclohexenone 1000 mg/kg): 25.2 ± 1.8*^a uM/mg protein | GSHPx (glutathione peroxidase activity) ([3]; cyclohexenone 1000 mg/kg): 11.2 ± 3.4 nmol/min/mL | SOD ([3]; cyclohexenone 1000 mg/kg): 0.52 ± 0.28 U/mg protein | Catalase ([3]; cyclohexenone 3000 mg/kg): 9.8 ± 0.9 U/mg protein | GSH (Glutathione activity) ([3]; cyclohexenone 3000 mg/kg): 26.7 ± 4.3*^a uM/mg protein | GSHPx (glutathione peroxidase activity) ([3]; cyclohexenone 3000 mg/kg): 10.6 ± 3.1 nmol/min/mL | SOD ([3]; cyclohexenone 3000 mg/kg): 0.73 ± 0.23 U/mg protein
